Data as given in US20230145643A1, “AGENTS FOR USE IN THE THERAPEUTIC OR PROPHYLACTIC TREATMENT OF RETINAL PIGMENT EPITHELIUM ASSOCIATED DISEASES” (priority 2020, published 2023).
“And” between values parts separate entries of the source, which are not always exact repeats. Equal entries are not always repeated. Where two headings read alike, the source gives them in different places.

Legend:
guinea pig eyes = experiment: Toxicity test of intravitreally administered amphiregulin (guinea pigs); type: in vivo
Description: Methods and Material: Two to three-week old guinea pigs were divided into four groups:
animals that received an intravitreal administration of amphiregulin (dose: 10 ng in 5 μl) into one eye and an intravitreal administration of vehicle into the contralateral eye (n=4),
animals that received an intravitreal administration of amphiregulin (dose: 10 ng in 5 μl) into both eyes (n=4),
an animal that received intravitreal administration of amphiregulin (dose: 10 ng in 5 μl) into one eye with the contralateral eye left untreated (n=1), and
animals with both eyes left intact (n=2).
All animals were treated in accordance with the ARVO (association for Research in Vision and Ophthalmology) Statement for the Use of Animals in Ophthalmic and Vision Research and the EC Directive 86/609/EEC for animal experiments. The animals were housed at a constant temperature (22±1° C.) and in a light-controlled environment (lights on from 7 am to 7 pm) with ad libitum access to food and water.
All animals with injections received two intravitreal injections at an interval of ten days.
At each time point, the eyes were inspected for signs of toxicity. Ten days after the second injection, the animals were sacrificed by an overdose of anesthetics. Ocular biometry was performed at baseline, prior to each injection, and prior to the sacrifice of animals. The sonographic ocular biometry was performed using Aviso, The Ultrasound Platform (Quantel Medical, France) under general anesthesia, on the follow-up days 15, 25, 35 and prior the sacrifice on day 45.
After the sacrifice, the eyes of the animals were removed, post-fixed overnight in 4% paraformaldehyde, and embedded in optimal cutting temperature compound, cryosectioned and immunostained against glial activation marker (glial fibrillary acidic protein), microglial cell marker (lba-1), native guinea pig amphiregulin, and injected amphiregulin; or they were embedded in paraffin, sectioned and stained with hematoxylin and eosin for general histologic examination and histomorphometric retinal thickness measurements. In addition, the tissue was stained for apoptotic cell death detection applying the TUNEL method.

bovine RPE cell [1] = details: bovine RPE cells after incubation with growth factor; cited from earlier work
bovine RPE cell [2] = details: bovine RPE cells; cited from earlier work
EGFR = EGFR signaling via the PI3K/Akt pathway in RPE culture; type: cell-based; details: addition of EGF
[3] = tested on: eye of patient with geographic atrophy; type: in vivo, human; details: for foveolar zone thickness upon optical coherence tomography: 69 μm at baseline
Excerpt: Optical coherence tomography images of the fundus signs were unchanged. • On the 7th day after the injection, the eye appeared to be untouched, the conjunctival injection had subsided. Visual acuity had improved from 0.03 before the injection to 0.1. […] Upon optical coherence tomography, the foveolar zone increased in thickness from 69 μm at baseline to 71 μm at seven days after the injection, and to 73 μm two weeks later (FIGS. 3a, b).

[4] = tested on: EGF-EGFR-MAPK signal transduction pathway; details: human RPE cells in culture; concentration-dependent manner; cited from earlier work
[5] = tested on: eyes of AMD patients (geographic atrophy); experiment: Series of seven AMD patients treated with intravitreal EGF; type: in vivo, human
Excerpt: A series of seven patients were consecutively treated. […] The patients underwent weekly to two-weekly ophthalmological follow-up examinations. Three patients (patients #1, 2, and 3) received a repeated intravitreal injection after an interval of three to four weeks.

ARPE-19 cell line [6] = experiment: RPE cell migration (scratch assay); type: cell-based, human; details: dose-dependent; EGF 0.1, 10, 100 μg/L; EGF antibody 0.01, 1.0, 10 mg/L; PBS control
Description: (§1) Materials and Methods: The human ARPE-19 cell line was cultured in a standardized culture medium and incubated at 37° C. under 5% CO2. […] We examined the RPE cell proliferation using of a scanning spectrophotometer. In a second step, we examined the cell migration by a scratch assay.

adult rabbits' eyes = experiment: Toxicity test of intravitreally administered EGF (rabbits); type: in vivo, rabbit; details: for Intraocular pressure (IOP): injected right eye (OD), 100 ng EGF intravitreal
Description: The injections were performed in the upper right quadrant of the eyes in a distance of 3-4 mm from the limbus. At baseline of the study, and at specific dates after the injection the animals were examined using photography of the external eye and anterior and posterior segment of the eye, tonometry, optical coherence tomography (OCT) of the posterior fundus, and fundus photography. Four weeks after a third injection, the animals were sacrificed and the globes were histomorphometrically examined.
After sacrificing the animals, the eyes were enucleated, immediately fixed in a solution of 1% glutaraldehyde and 4% formaldehyde, and kept in that solution for seven days at room temperature. The sagittal, vertical and horizontal globe diameter were subsequently measured. A central segment with a thickness of about 8 mm and running through the optic nerve head and the pupil was cut out of the fixed globes, dehydrated in alcohol, imbedded in paraffin, sectioned for light microscopy with a slide thickness of 4-6 μm, and stained with hematoxylin eosin.
The cell number in the three retinal layers containing cell nuclei was counted. The slides for apoptotic cell death were additionally stained using the TUNEL (terminal deoxynucleotidyl transferase dUTP nick end labeling) technique.

RPE D407 cells = details: through both PI3K and ERK/MAPK pathways; cited from earlier work
ARPE-19 cell line [7] = experiment: RPE cell proliferation (scanning spectrophotometer); type: cell-based, human; details: dose-dependent; EGF 0.1, 10, 100 μg/L; EGF antibody 0.01, 1.0, 10 mg/L; PBS control
Description: as §1

[8] = injected eyes vs eyes injected with PBS or untouched eyes
[9] = 0.75 μg EGF intravitreal, one line per patient (1-7)
[10] = after the repeated intravitreal injections

Amphiregulin
animal weight (guinea pig eyes; four groups, 10 ng in 5 μl intravitreal, two injections at ten days interval): did not differ in their weight at any time point analyzed
TUNEL positive cell numbers (guinea pig eyes; [8]): No significant increase
microglial infiltration (guinea pig eyes; [8]): No significant increase
retinal gliosis (guinea pig eyes; [8]): No significant increase
intraocular inflammatory or toxic effect (guinea pig eyes; repeatedly intravitreally applied, guinea pigs (summary)): did not result in an intraocular inflammatory or toxic effect

acidic fibroblast growth factor [aFGF]
RPE cell migration (bovine RPE cell [1]): significantly enhanced
RPE cell DNA synthesis (bovine RPE cell [2]): stimulated

basic fibroblast growth factor [bFGF]
RPE cell migration (bovine RPE cell [1]): significantly enhanced
RPE cell DNA synthesis (bovine RPE cell [2]): stimulated

epidermal growth factor [EGF]
EGFR signaling via the PI3K/Akt pathway (EGFR): caused an increase
subjective vision ([3]; 7th day after the injection): marked improvement in vision
Visual acuity ([3]; 7th day after the injection, 0.03 before the injection): 0.1
light differential sensitivity in the central zone (computer perimetry) ([3]; after injection, central four measurement points, 11.3 dB before): 24.8 dB per measurement point
Intraocular Pressure ([3]; human, in vivo): unchanged within normal limits
conjunctival injection ([3]; human, in vivo): had subsided
finding on the surface of the eye ([3]; human, in vivo): mixed moderate conjunctival injection
pathological reactions of the anterior segment of the eye ([3]; human, in vivo): no pathological reactions
foveolar zone thickness upon optical coherence tomography ([3]; seven days after the injection): 71 μm
central visual acuity ([3]; third day after injection): unchanged
optical coherence tomography images of the fundus ([3]; third day after injection): unchanged
peripheral vision ([3]; third day after injection): remained unchanged
subjective vision (metamorphopsias) ([3]; third day after injection): the distortions and curvatures of objects (metamorphopsias) disappeared
foveolar zone thickness upon optical coherence tomography ([3]; two weeks later): 73 μm
EGF-EGFR-MAPK signal transduction pathway induction [4]: induces the EGF-EGFR-MAPK (mitogen-activated protein kinase) signal transduction pathway
Visual Acuity (Decimal) at last examination ([5]; 0.75 μg EGF in 50 μl intravitreal, one line per patient (1-7), follow-up one to seven weeks): 0.09 and 0.03 and 0.06 and 0.1 (2×) and 0.08 and 0.05
Intraocular Pressure [5, 9]: 17 mmHg and 16 mmHg
Quality of vision [5, 9]: Improved
Improvement in ETDRS letters ([5]; 0.75 μg EGF intravitreal, one line per patient (1-7), last examination vs before injection): 3 ETDRS letters and 8 ETDRS letters and 9 ETDRS letters and 26 ETDRS letters and 6 ETDRS letters and 11 ETDRS letters and 0 ETDRS letters
side effects ([5]; besides conjunctival vessel dilatation or circumscribed subconjunctival hemorrhage at the site of the injection): no other side effects were noted
intraocular pressure after injection, upper bound in all eyes ([5]; none of the eyes beyond this value): ≤ 21 mmHg
patients with improvement in measured visual acuity ([5]; out of seven patients, follow-up one week to seven weeks): six showed an improvement in their measured visual acuity
visual function and macular morphology ([5]; patients with geographic atrophy, intravitreal application (summary of Examples 1 and 2)): improvement in visual function and macular morphology
intraocular tolerability ([5]; patients, intravitreal application (summary statement)): well tolerated intraocularly without signs of intraocular inflammation or toxicity
cells in the anterior chamber fluid or vitreous cavity (slit lamp-based biomicroscopy) ([5]; seven patients): In none of the eyes
central visual field (perimetry) ([5]; seven patients): also improved
hemorrhages or other newly developed pathologies in the retina ([5]; seven patients): none of the eyes revealed hemorrhages or other newly developed pathologies in the retina
signs of intraocular inflammation, lens opacification, optic media clarity, intraocular pressure change ([5]; seven patients): no signs of intraocular inflammation, lens opacification, changes in the clarity of the optic media, or any significant change in intraocular pressure
thickness of the tissue in the foveolar region (fundus examination, OCT) ([5]; seven patients): tendency of an increase
ARPE-19 cell migration (ARPE-19 cell line [6]): increased with higher concentrations
change in intraocular pressure (IOP) as measured by tonometry (adult rabbits' eyes; [10]): No significant change
change in retinal thickness as measured by OCT (adult rabbits' eyes; [10]): No significant change
Intraocular pressure (IOP) (adult rabbits' eyes; 5 Dec. 2018): 6 mmHg
Intraocular pressure (IOP) (adult rabbits' eyes; 29 Dec. 2018): 8 mmHg
cell count of the retinal layers (histomorphometry) (adult rabbits' eyes; injected vs contralateral eyes, posterior pole, midpoint, equator, ora serrata region, all P-values>0.20): did not differ significantly
apoptotic cells in TUNEL staining (adult rabbits' eyes; rabbit eyes): neither in the right eyes or in the left eyes, apoptotic cells were detected
intravital examinations of the external eye and the anterior segment (toxicity, cataract) (adult rabbits' eyes; rabbits, repeated intravitreal injections): did not reveal any sign of toxicity or development of cataract
intraocular inflammatory or toxic effect (adult rabbits' eyes; repeatedly intravitreally applied, rabbits (summary)): did not result in an intraocular inflammatory or toxic effect
survival of RPE D407 cells (RPE D407 cells): stimulated survival of RPE D407 cells
RPE cell migration (bovine RPE cell [1]): significantly enhanced
ARPE-19 cell proliferation (ARPE-19 cell line [7]): increased with higher concentrations
RPE cell DNA synthesis (bovine RPE cell [2]): stimulated

insulin-like growth factor-1 [IGF-1]
RPE cell migration (bovine RPE cell [1]): significantly enhanced

platelet-derived growth factor [PDGF]
RPE cell migration (bovine RPE cell [1]): significantly enhanced
RPE cell DNA synthesis (bovine RPE cell [2]): stimulated
